Legend:
PI3K delta = target: T1, PI3K delta (Homo sapiens, UniProt O00329); test: PI3K delta kinase assay (Kinase-Glo luminescence); assay type: biochemical
T1 construct: for the full-length p110-d subunit are generated and fused by overlapping PCR; p85(iSH2) fusion partner (see partner chain) (N); His tag (C); made in house; host or cells: baculovirus; Tn5 (Trichoplusia ni) or TiniPro insect cells
Summary of the method: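 Kinase-Glo luminescence read-out of ATP remaining after 60 min at RT. Enzyme: 10 nM BV1060 (p85 iSH2–p110δ fusion, His-tagged); substrate 10 μg/mL PI, ATP 1 μM final; Tris pH 7.5 buffer with MgCl2, NaCl, CHAPS, DTT. IC50 from 4-parameter logistic fit over 8 concentrations.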

[1] = system: S6 Ribosomal Protein phosphorylation Ser235/236 in TSC1 null mouse embryo fibroblast (MEF) cells; test: Reverse protein array assay, S6 Ribosomal Protein phosphorylation Ser235/236 in TSC1 null MEF cells; assay type: cell-based; settings: 1 h, pS6 ribosomal protein Ser235/236, 60 minutes incubation, read-out: p-S6 IC50
Summary of the method: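 TSC1−/− MEFs, seeded and held ≥20 h at 37 °C/5% CO2, were exposed to 8-step serial compound dilutions (0.02% DMSO final; DMSO vehicle control) for 60 min at 37 °C. Cells were then lysed on ice for 10 min and lysates spotted onto reverse protein array chips.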

T1 sequence (O00329 with tags, fused parts or gaps limits assumed): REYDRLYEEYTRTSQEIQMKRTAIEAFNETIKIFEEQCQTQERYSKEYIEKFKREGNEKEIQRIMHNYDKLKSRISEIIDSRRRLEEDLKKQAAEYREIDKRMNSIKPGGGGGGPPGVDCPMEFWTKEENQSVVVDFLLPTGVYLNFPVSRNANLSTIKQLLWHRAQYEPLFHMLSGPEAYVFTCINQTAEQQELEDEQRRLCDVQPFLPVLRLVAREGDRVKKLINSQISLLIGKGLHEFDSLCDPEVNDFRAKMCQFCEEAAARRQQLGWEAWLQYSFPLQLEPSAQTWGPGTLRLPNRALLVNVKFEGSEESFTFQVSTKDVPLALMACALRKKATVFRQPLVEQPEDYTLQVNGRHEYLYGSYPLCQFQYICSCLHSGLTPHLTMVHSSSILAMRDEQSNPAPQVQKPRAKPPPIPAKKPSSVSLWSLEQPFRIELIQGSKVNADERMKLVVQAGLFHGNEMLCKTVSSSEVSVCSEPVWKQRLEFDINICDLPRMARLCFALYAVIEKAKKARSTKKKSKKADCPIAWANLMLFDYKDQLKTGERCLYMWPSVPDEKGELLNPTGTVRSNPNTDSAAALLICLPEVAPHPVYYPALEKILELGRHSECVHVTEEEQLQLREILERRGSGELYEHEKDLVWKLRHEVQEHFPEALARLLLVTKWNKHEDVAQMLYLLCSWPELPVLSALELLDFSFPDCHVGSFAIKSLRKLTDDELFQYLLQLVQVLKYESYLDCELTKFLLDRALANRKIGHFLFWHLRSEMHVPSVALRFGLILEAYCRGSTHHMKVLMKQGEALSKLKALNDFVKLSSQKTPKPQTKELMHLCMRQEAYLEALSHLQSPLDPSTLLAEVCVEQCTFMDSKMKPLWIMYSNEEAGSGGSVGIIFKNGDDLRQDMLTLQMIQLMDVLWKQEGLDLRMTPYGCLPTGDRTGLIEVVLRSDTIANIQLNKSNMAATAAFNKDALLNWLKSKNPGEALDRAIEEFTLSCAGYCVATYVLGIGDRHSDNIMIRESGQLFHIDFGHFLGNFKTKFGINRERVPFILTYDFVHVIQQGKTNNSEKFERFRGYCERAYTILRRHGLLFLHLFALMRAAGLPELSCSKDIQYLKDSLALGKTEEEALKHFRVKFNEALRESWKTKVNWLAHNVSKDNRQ

SMILES	IC50 (PI3K delta) [nM]	IC50 [1] [nM]
COc1ccc(-c2ccc3ncc4c(c3c2)n(-c2cc(C)nn2C)c(=O)n4C)cn1 [Example 2.3, 1-(2,5-Dimethyl-2H-pyrazol-3-yl)-8-(6-methoxy-pyridin-3-yl)-3-methyl-1,3-dihydro-imidazo[4,5-c]quinolin-2-one]	30	
CCOc1ccc(-c2ccc3ncc4c(c3c2)n(-c2ccnn2CC)c(=O)n4C)cn1 [Example 3.4, 8-(6-Ethoxy-pyridin-3-yl)-1-(2-ethyl-2H-pyrazol-3-yl)-3-methyl-1,3-dihydro-imidazo[4,5-c]quinolin-2-one]	283	199
Cc1nn(CC(=O)N(C)C)cc1-n1c(=O)n(C)c2cnc3ccc(-c4ccccc4)cc3c21 [Example 37.3, N,N-Dimethyl-2-[3-methyl-4-(3-methyl-2-oxo-8-phenyl-2,3-dihydro-imidazo[4,5-c]quinolin-1-yl)-pyrazol-1-yl]-acetamide]		15
CCN(C)C(=O)Cn1cc(-n2c(=O)n(C)c3cnc4ccc(-c5cncc(OC(C)C)c5)cc4c32)c(C)n1 [Example 58.5, N-Ethyl-2-{4-[8-(5-isopropoxy-pyridin-3-yl)-3-methyl-2-oxo-2,3-dihydro-imidazo[4,5-c]quinolin-1-yl]-3-methyl-pyrazol-1-yl}-N-methyl-acetamide]	39	3
Cc1nn(CC(=O)N(C)C)c(C)c1-n1c(=O)n(C)c2cnc3ccc(-c4cncc(OC5CCC5)c4)cc3c21 [Example 60.2, 2-{4-[8-(5-Cyclobutoxy-pyridin-3-yl)-3-methyl-2-oxo-2,3-dihydro-imidazo[4,5-c]quinolin-1-yl]-3,5-dimethyl-pyrazol-1-yl}-N,N-dimethyl-acetamide]	694	11
COc1ncc(-c2ccc3ncc4c(c3c2)n(-c2cn(C)nc2C)c(=O)n4C)cc1NC(C)=O [Example 64, N-{5-[1-(1,3-Dimethyl-1H-pyrazol-4-yl)-3-methyl-2-oxo-2,3-dihydro-1H-imidazo[4,5-c]quinolin-8-yl]-2-methoxy-pyridin-3-yl}-acetamide]	51	5
Cc1nn(C)cc1-n1c(=O)n(C)c2cnc3ccc(-c4ccc(-n5cccn5)nc4)cc3c21 [Example 79, 1-(1,3-Dimethyl-1H-pyrazol-4-yl)-3-methyl-8-(6-pyrazol-1-yl-pyridin-3-yl)-1,3-dihydro-imidazo[4,5-c]quinolin-2-one]	318	5
CCNc1cc(-c2ccc3ncc4c(c3c2)n(-c2c(C)nn(CC(=O)N(C)C)c2C)c(=O)n4C)cnc1C [Example 87.5, 2-{4-[8-(5-Ethylamino-6-methyl-pyridin-3-yl)-3-methyl-2-oxo-2,3-dihydro-imidazo[4,5-c]quinolin-1-yl]-3,5-dimethyl-pyrazol-1-yl}-N,N-dimethyl-acetamide]	35	180
CCNc1cc(-c2ccc3ncc4c(c3c2)n(-c2c(C)nn(CCOC)c2C)c(=O)n4C)cnc1OC [Example 90.2, 8-(5-Ethylamino-6-methoxy-pyridin-3-yl)-1-[1-(2-methoxy-ethyl)-3,5-dimethyl-1H-pyrazol-4-yl]-3-methyl-1,3-dihydro-imidazo[4,5-c]quinolin-2-one]	26	35
Cc1nn(C)cc1-n1c(=O)n(C)c2cnc3ccc(-c4cnc5cc[nH]c5c4)cc3c21 [Example 99, 1-(1,3-Dimethyl-1H-pyrazol-4-yl)-3-methyl-8-(1H-pyrrolo[3,2-b]pyridin-6-yl)-1,3-dihydro-imidazo[4,5-c]quinolin-2-one]	6	4
COc1ncc(-c2ccc3ncc4c(c3c2)n(-c2cn(C)nc2C)c(=O)n4C)cc1C(N)=O [Example 125.2, 5-[1-(1,3-Dimethyl-1H-pyrazol-4-yl)-3-methyl-2-oxo-2,3-dihydro-1H-imidazo[4,5-c]quinolin-8-yl]-2-methoxy-nicotinamide]	40	5
COc1ncc(-c2ccc3ncc4c(c3c2)n(-c2cn(C)nc2C)c(=O)n4C)cc1C#N [Example 132, 5-[1-(1,3-Dimethyl-1H-pyrazol-4-yl)-3-methyl-2-oxo-2,3-dihydro-1H-imidazo[4,5-c]quinolin-8-yl]-2-methoxy-nicotinonitrile]	58	3
CCN(C)C(=O)Cn1cc(-n2c(=O)n(C)c3cnc4ccc(-c5ccccc5)cc4c32)c(C)n1 [Example 135, N-Ethyl-N-methyl-2-[3-methyl-4-(3-methyl-2-oxo-8-phenyl-2,3-dihydro-imidazo[4,5-c]quinolin-1-yl)-pyrazol-1-yl]-acetamide]		6
CCN(C)C(=O)Cn1cc(-n2c(=O)n(C)c3cnc4ccc(-c5cnc(N6CCCC6)nc5)cc4c32)c(C)n1 [Example 140.1, N-Ethyl-N-methyl-2-{3-methyl-4-[3-methyl-2-oxo-8-(2-pyrrolidin-1-yl-pyrimidin-5-yl)-2,3-dihydro-imidazo[4,5-c]quinolin-1-yl]-pyrazol-1-yl}-acetamide]		5
CNc1ncc(-c2ccc3ncc4c(c3c2)n(-c2c(C)nn(C)c2C)c(=O)n4C)cc1F [Example 141.1, 8-(5-Fluoro-6-methylamino-pyridin-3-yl)-3-methyl-1-(1,3,5-trimethyl-1H-pyrazol-4-yl)-1,3-dihydro-imidazo[4,5-c]quinolin-2-one]	44	34
CNc1ncc(-c2ccc3ncc4c(c3c2)n(-c2cn(C)nc2C)c(=O)n4C)cc1F [Example 141.2, 1-(1,3-Dimethyl-1H-pyrazol-4-yl)-8-(5-fluoro-6-methylamino-pyridin-3-yl)-3-methyl-1,3-dihydro-imidazo[4,5-c]quinolin-2-one]	98	1
Cc1nn(C)c(C)c1-n1c(=O)n(C)c2cnc3ccc(-c4cnc(N)c(F)c4)cc3c21 [Example 142.1, 8-(6-Amino-5-fluoro-pyridin-3-yl)-3-methyl-1-(1,3,5-trimethyl-1H-pyrazol-4-yl)-1,3-dihydro-imidazo[4,5-c]quinolin-2-one]	4	36
CNc1ncc(-c2ccc3ncc4c(c3c2)n(-c2c(C)nn(C)c2C)c(=O)n4C)cc1Cl [Example 146.4, 8-(5-Chloro-6-methylamino-pyridin-3-yl)-3-methyl-1-(1,3,5-trimethyl-1H-pyrazol-4-yl)-1,3-dihydro-imidazo[4,5-c]quinolin-2-one]	19	12
CNc1ncc(-c2ccc3ncc4c(c3c2)n(-c2cc(C)nn2C)c(=O)n4C)cc1Cl [Example 146.5, 8-(5-Chloro-6-methylamino-pyridin-3-yl)-1-(2,5-dimethyl-2H-pyrazol-3-yl)-3-methyl-1,3-dihydro-imidazo[4,5-c]quinolin-2-one]	3	2.66
Cc1noc(C)c1-n1c(=O)n(C)c2cnc3ccc(-c4cnc(N)c(Cl)c4)cc3c21 [Example 148.4, 8-(6-Amino-5-chloro-pyridin-3-yl)-1-(3,5-dimethyl-isoxazol-4-yl)-3-methyl-1,3-dihydro-imidazo[4,5-c]quinolin-2-one]	45	17.7
CCn1cc(-n2c(=O)n(C)c3cnc4ccc(-c5cnc(NC)nc5OC)cc4c32)c(C)n1 [Example 236, 1-(1-Ethyl-3-methyl-1H-pyrazol-4-yl)-8-(4-methoxy-2-methylamino-pyrimidin-5-yl)-3-methyl-1,3-dihydro-imidazo[4,5-c]quinolin-2-one]	7	

Source: patent US20140005163A1 (NOVARTIS AG, priority 2010, published 2014)
